# Laboratory results as given in patent publication US12060588B2, “Methods of editing DNA methylation” (Whitehead Institute for Biomedical Research, priority 2016, dated 2024).
# System: HEK293T cells
# Experiment: Nuclear-cytoplasmic localization of dCas9-Tet1 constructs with or without gRNA
# Type: cell-based
# Conditions: for induction index (nuclear-cytoplasmic ratio with sgRNA normalized to that without sgRNA): HEK293T cells
# From the text: FIGS. 8A-8E depict a modified CRISPR system for editing 5-cytosine DNA methylation in the mammalian genome. FIG. 8A depicts design of dCas9-effector constructs with nuclear localization signal (NLS) located at different positions, and guide RNA (gRNA) or enhanced guide RNA (E-gRNA) with CMV-driven puro-T2A-Cherry cassette. Ub: human Ubiquitin C promoter. […] FIG. 8C provides comparison of the cellular localization of dCas9-NLS-Tet1 and NLS-dCas9-NLS-Tet1 in HEK293T cells with or without co-expression of a gRNA or E-gNRA targeting the same position in the MyoD locus. […] Co-expression of either gRNA or E-gRNA induced cytoplasm-to-nucleus translocation of these two proteins. Stained in green for dCas9, red for Cherry and blue for DAPI in the merged images. The red dashed lines in the first two panels indicate the cross section of the images for GFP intensity quantification. Scale bar: 10 um. FIG. 8D provides quantification of the nuclear-cytoplasmic ratio of dCas9-NLS-Tet1 and NLS-dCas9-NLS-Tet1 in HEK293T cells in the absence or presence of a gRNA, or an E-gNRA in a Box and Whiskers plot. Average dCas9 intensity of cytoplasmic and nuclear domain along a cross-sectional line as illustrated in C was used for the quantification. “+” denotes mean value of the 20 data points in each group; the boxes indicate the extreme data points (top and bottom bars), the 25-75% interval (box), and the median (central line). […] We reasoned that the combination with the highest induction index would result in the best signal-to-noise ratio for targeted DNA methylation editing.
# To achieve targeted editing of DNA methylation, we fused dCas9 with enzymes in the methylation/demethylation pathway (FIG. 1A). […] Both gRNA constructs contain a puro selection cassette and a Cherry fluorescence protein cassette driven by an independent CMV promoter that allows for Fluorescence Activated Cell Sorting (FACS) of gRNA-expressing cells after lentiviral transduction (FIG. 8A). […]
substance,measurement,setting,value
"dCas9-Tet1: catalytically inactive Cas9 (dCas9) fused through NLS to the Tet1 catalytic domain, SEQ ID NO: 159; lentivirally expressed with gRNAs",induction index (nuclear-cytoplasmic ratio with sgRNA normalized to that without sgRNA),co-expression of E-gRNA targeting the MyoD locus,3.22 folds
same,induction index (nuclear-cytoplasmic ratio with sgRNA normalized to that without sgRNA),co-expression of gRNA targeting the MyoD locus,3.17 folds
same,cellular localization,"in the absence of sgRNAs, transfected HEK293T cells",predominantly excluded from the nuclear compartment
